Consider 11 compounds from article PMC12811997 (Chemmedchem, 2025).

Like-named read-outs stand apart in the source and are kept apart here.

Series [1] addresses T1, SARS‐CoV‐2 RdRp complex (nsp12, nsp7, nsp8) (Severe acute respiratory syndrome coronavirus 2, UniProt P0DTD1). More on the design: method as in PMID 39140451. Particulars: at 10 μM concentration of screened compound; ref [10]; cited from earlier work.
Series [2] has as its target T1, SARS‐CoV‐2 RdRp complex (nsp12, nsp7, nsp8). The series is described as follows: biochemical. It is filed as biochemical. Particulars: read-out: RA ± SD (residual activity of RdRp), at 10 μM concentration of screened compounds; AUC with compound / AUC of noninhibited reaction.
Another series concerns SARS‐CoV‐2. The series is described as follows: microbe, parasite or virus in culture. The series is classed as cell-based.
A further series can be described thus: Kinetic solubility. Particulars: for solubility kinetic: kinetic from dmso stock; for kinetic solubility: as restated in Conclusions.
The next series in a line: in vitro. As to conditions: human.
Where [3] appears, read: Severe acute respiratory syndrome coronavirus 2, Calu‐3 cells infected with SARS‐CoV‐2, concentration required to reduce viral cytopathic effect by 50%, read-out: EC50.

Method for in vitro: Cytotoxicity was evaluated by incubating the same two‐fold serial dilutions of each compound with Calu‐3 cells as above but without the virus. Following 3 days of incubation at 37 °C in 5% CO2, the cell viability was determined by the addition of XTT solution as above. The compound cytotoxic concentrations resulting in a 50% reduction of absorbance (CC50) were calculated from plots of the percentage of absorbance versus log10 of drug concentration as above.

Take `O=C(Nc1cccc(C(F)(F)F)c1)Nc1nc2cc(Cl)c(Cl)cc2[nH]1` [Compound 3]: the “RA (residual activity of RdRp)” value in series [1] is 49 ± 6%.
Regarding `O=C(Nc1cc(Cl)cc(Cl)c1)Nc1cccc(C(F)(F)F)c1` [Compound 1, 1‐(3,5‐dichlorophenyl)‐3‐(3‐(trifluoromethyl)phenyl)urea], the “RA (residual activity of RdRp)” value in series [1] is recorded as 45%.
With `O=C(Nc1cc(Cl)cc(Cl)c1)Nc1nc2ccc(C(F)(F)F)cc2[nH]1` [Compound 4], in series [1], the “RA (residual activity of RdRp)” value was 29 ± 2%.
`FC(F)(F)c1ccc2nc(-c3nc4cc(Cl)c(Cl)cc4[nH]3)[nH]c2c1` [Compound 2]: in series [1], the “RA (residual activity of RdRp)” value is given as 43 ± 6%.
As usually defined, the EC50 is the concentration needed to bring the measured effect to its halfway point. One may read the solubility (kinetic) as the concentration staying in solution when a stock, usually in DMSO, is diluted into the medium. For `O=C(Nc1ccc(C(F)(F)F)cc1)Nc1cc(Cl)cc(Cl)c1` [Compound 13, 1‐(3,5‐Dichlorophenyl)‐3‐(4‐(Trifluoromethyl)Phenyl)Urea], the remaining activity at 10 µM in series [2] turned out to be 34 ± 14%. In addition, the EC50 with SARS‐CoV‐2 (setting [3]) is above 0.29 µM. The solubility (kinetic) in the series “Kinetic solubility” is below 2.1 µM. Further, in the series “in vitro”, the CC50 at 3 days came to 0.29 ± 0.03 µM.
For `COC(=O)C1CN(Cc2ccc(NC(=O)Nc3cc(Cl)cc(Cl)c3)cc2C(F)(F)F)CCO1.Cl` (centres unmarked) [Compound 69, Methyl 4‐(4‐(3‐(3,5‐Dichlorophenyl)Ureido)‐2‐(Trifluoromethyl)Benzyl)Morpholine‐2‐Carboxylate Hydrochloride] the same measures were 42 ± 4%, above 34 µM, below 2 µM and 34 ± 5.6 µM.
The corresponding values for `Cl.NC(=O)C1CN(Cc2ccc(NC(=O)Nc3cc(Cl)cc(Cl)c3)cc2C(F)(F)F)CCO1` (centres unmarked) [Compound 72, 4‐(4‐(3‐(3,5‐Dichlorophenyl)Ureido)‐2‐(Trifluoromethyl)Benzyl)Morpholine‐2‐Carboxamide Hydrochloride] are 52 ± 5%, above 12 µM, 4.7 ± 0.1 µM and 12 ± 0.51 µM.
For the compound `O=C(Nc1cc(Cl)cc(Cl)c1)Nc1ccc(CN2CCOC(C(=O)[O-])C2)c(C(F)(F)F)c1.[Li+]` (centres unmarked) [Compound 71, Lithium 4‐(4‐(3‐(3,5‐Dichlorophenyl)Ureido)‐2‐(Trifluoromethyl)Benzyl)Morpholine‐2‐Carboxylate], the remaining activity at 10 µM in series [2] was around 65%. Moreover, the EC50 with SARS‐CoV‐2 (Severe acute respiratory syndrome coronavirus 2, Calu-3) was above 32 µM. In the series “Kinetic solubility”, this compound registered a kinetic solubility of 71 µM L^−1 and a kinetic solubility of 71 ± 1 µM. This compound had a CC50 at 3 days in “in vitro” of 32 ± 0.77 µM.
For `Cl.O=C1CN(Cc2ccc(NC(=O)Nc3cc(Cl)cc(Cl)c3)cc2C(F)(F)F)CCN1` [Compound 70, 1‐(3,5‐Dichlorophenyl)‐3‐(4‐((3‐Oxopiperazin‐1‐Yl)Methyl)‐3‐(Trifluoromethyl)Phenyl)Urea Hydrochloride], the remaining activity at 10 µM in series [2] was found to be 63 ± 7%. In addition, the 50% effective concentration (EC50) in the series with SARS‐CoV‐2 (setting [3]) was above 9.5 µM. The compound further displayed a kinetic solubility in “Kinetic solubility” of 11.2 ± 0.07 µM. Moreover, the CC50 at 3 days in “in vitro” amounted to 9.5 ± 0.28 µM.
`CN1CCN(Cc2ccc(NC(=O)Nc3cc(Cl)cc(Cl)c3)cc2C(F)(F)F)CC1.Cl` [Compound 40, 1‐(3,5‐Dichlorophenyl)‐3‐(4‐((4‐Methylpiperazin‐1‐Yl)Methyl)‐3‐(Trifluoromethyl)Phenyl)Urea Hydrochloride]: the remaining activity at 10 µM in series [2] was around 65%. Moreover, the EC50 in the series with SARS‐CoV‐2 (setting [3]) is above 13 µM. In “Kinetic solubility”, the kinetic solubility is on record as 43.5 µM L^−1 and the solubility (kinetic) is 43.5 ± 0.8 µM. For the same compound, the CC50 at 3 days in “in vitro” came out at 13 ± 0.8 µM.
Consider `Cl.O=C(Nc1cc(Cl)cc(Cl)c1)Nc1ccc(CN2CCOCC2)c(C(F)(F)F)c1` [Compound 39, 1‐(3,5‐Dichlorophenyl)‐3‐(4‐(Morpholinomethyl)‐3‐(Trifluoromethyl)Phenyl)Urea Hydrochloride], for which the remaining activity at 10 µM in series [2] amounted to 36 ± 7%. Besides, the EC50 in the series with SARS‐CoV‐2 (setting [3]) was above 8.4 µM. For the same compound, in “Kinetic solubility”, the kinetic solubility was 4.2 µM L^−1 and the solubility (kinetic) amounted to 4.2 ± 0.3 µM. Further, in “in vitro”, the CC50 at 3 days was 8.4 ± 1.1 µM.
